Activity calls are given as the source filed them. No cut-off for these calls is given here.
Columns and labels:
[1] = Metal chelating activity assessed as compound-Fe3+ complex formation after 1 hr by LC/MS analysis
[2] = test system: P388; test: Cytotoxicity against mouse P388 cells up to 100 uM after 4 days by MTT assay; format: functional, cell-based
[3] = test system: P388; test: Cytotoxicity against mouse P388 cells after 4 days by MTT assay; format: functional, cell-based; conditions: P388, 96 h
[4] = Stability of the compound in physiological conditions at pH > 7; format: physicochemical

Activity [1]	Stability [4]	Compound	Activity [2]	IC50 [3] [µM]
inactive	–	C[C@@H]1ON(CCC[C@@H](NC(=O)[C@H]2N=C(c3ccccc3O)O[C@@H]2C)C(=O)O)C(=O)[C@H]1NC(=O)c1ccccc1O	inactive	–
Active	Unstable	C[C@H]1OC(c2ccccc2O)=N[C@@H]1C(=O)N[C@H](CCCN(O)C(=O)[C@H]1N=C(c2ccccc2O)O[C@@H]1C)C(=O)O	–	22.4
